Experimental data: patent US11124515B2, “Adenosine receptor antagonists and uses thereof” (Teon Therapeutics, Inc., priority 2018, dated 2021)

Assay: Pharmacokinetic study in Sprague Dawley rats, single oral dose, plasma LC/MS/MS
Type: in vivo
Details: suspension in 0.5% methylcellulose in water
Protocol: Pharmacokinetic studies were carried out in Sprague Dawley rats. Exemplary compounds were administered orally by gavage to groups of three rats using a single oral dose of 5 mg/kg. Each oral dose was prepared as a suspension in 0.5% methylcellulose in water. Blood samples were obtained serially from each rat at 0, 15, 30 min, and then 1, 2, 4, 8, and 24 hrs post dose.
Concentrations of an administered compound and the corresponding metabolite (Compound 1) in rat plasma were determined by a HPLC tandem mass spectrometric (LC/MS/MS) method. 50 μL Plasma PPT by ISTD in MeOH/Acetonitrile (1:1, v/v). 200 μL of 5 ng/mL Terfenadine and Buspirone was added to in MeOH/Acetonitrile (1:1, v/v) and mixed well. […]
Quantification of compounds were achieved by mass spectrometry using Multiple Reaction Monitoring (MRM) mode, monitoring the transitions specific to each exemplary compound and 447.34>405.20 for Compound 1. The quantification limit of the assay was 10 ng/mL for Compound 1.
Non-compartmental pharmacokinetic parameters were determined using a commercial program WinNonLin Professional, Version 8.0 (Pharsight, Mountain View, Calif.). […]
For oral administration, t½ (hr), tmax (hr), Cmax (ng/mL), AUClast (hr*ng/mL), AUCInf (hr*ng/mL), AUC Extr (%), MRTInf (hr), Cmax Ratio (Parent/Pro), AUClast Ratio (Parent/Pro) were determined.

| AUC (AUClast) (compounds of Formula (B), single oral dose of 5 mg/kg) | AUC(0-t) (rat, Compound 1, single oral dose of 5 mg/kg, read-out: AUC (AUClast)) [ng·h/mL] | SMILES |
| --- | --- | --- |
| α or β |  | CCCC(=O)OCn1c(-c2cnn(Cc3cccc(C(F)(F)F)c3)c2)nc2c1c(=O)n(CCC)c(=O)n2CC [Compound E, (3-ethyl-2,6-dioxo-1-propyl-8-(1-(3-(trifluoromethyl)benzyl)-1H-pyrazol-4-yl)-1,2,3,6-tetrahydro-7H-purin-7-yl)methyl butyrate] |
|  | < 30000 | CCCn1c(=O)c2[nH]c(-c3cnn(Cc4cccc(C(F)(F)F)c4)c3)nc2n(CC)c1=O [Compound 1, 8-(1-(3-(Trifluoromethyl)benzyl)-1H-pyrazol-4-yl)-3-ethyl-1-propyl-1H-purine-2,6(3H,7H)-dione] |
